Laboratory results from ChEMBL document CHEMBL3638933, “Pyrrolopyridazine JAK3 inhibitors and their use for the treatment of inflammatory and autoimmune diseases” (2014).

What was measured:
[1] = molecular target: T1, Tyrosine-protein kinase JAK3 (Homo sapiens, UniProt P52333); assay: Reactions were incubated for 30 minutes at room temperature and stopped by the addition of cold trichloroacetic acid (TCA) to a final concentration of 15%. TCA precipitates were collected onto 384 well phosphocellulose filters (Millipore) using a Platemate to transfer the reaction mixture, washed on an EMBLA plate washer and the filters were quantitated using a TopCount 384-well liquid scintillation counter. […] Compounds were dissolved at 10 mM in dimethylsulfoxide (DMSO) and evaluated at six concentrations, each in triplicate. The final concentration of DMSO in the assay equaled 2%.
T1 sequence (P52333 whole entry): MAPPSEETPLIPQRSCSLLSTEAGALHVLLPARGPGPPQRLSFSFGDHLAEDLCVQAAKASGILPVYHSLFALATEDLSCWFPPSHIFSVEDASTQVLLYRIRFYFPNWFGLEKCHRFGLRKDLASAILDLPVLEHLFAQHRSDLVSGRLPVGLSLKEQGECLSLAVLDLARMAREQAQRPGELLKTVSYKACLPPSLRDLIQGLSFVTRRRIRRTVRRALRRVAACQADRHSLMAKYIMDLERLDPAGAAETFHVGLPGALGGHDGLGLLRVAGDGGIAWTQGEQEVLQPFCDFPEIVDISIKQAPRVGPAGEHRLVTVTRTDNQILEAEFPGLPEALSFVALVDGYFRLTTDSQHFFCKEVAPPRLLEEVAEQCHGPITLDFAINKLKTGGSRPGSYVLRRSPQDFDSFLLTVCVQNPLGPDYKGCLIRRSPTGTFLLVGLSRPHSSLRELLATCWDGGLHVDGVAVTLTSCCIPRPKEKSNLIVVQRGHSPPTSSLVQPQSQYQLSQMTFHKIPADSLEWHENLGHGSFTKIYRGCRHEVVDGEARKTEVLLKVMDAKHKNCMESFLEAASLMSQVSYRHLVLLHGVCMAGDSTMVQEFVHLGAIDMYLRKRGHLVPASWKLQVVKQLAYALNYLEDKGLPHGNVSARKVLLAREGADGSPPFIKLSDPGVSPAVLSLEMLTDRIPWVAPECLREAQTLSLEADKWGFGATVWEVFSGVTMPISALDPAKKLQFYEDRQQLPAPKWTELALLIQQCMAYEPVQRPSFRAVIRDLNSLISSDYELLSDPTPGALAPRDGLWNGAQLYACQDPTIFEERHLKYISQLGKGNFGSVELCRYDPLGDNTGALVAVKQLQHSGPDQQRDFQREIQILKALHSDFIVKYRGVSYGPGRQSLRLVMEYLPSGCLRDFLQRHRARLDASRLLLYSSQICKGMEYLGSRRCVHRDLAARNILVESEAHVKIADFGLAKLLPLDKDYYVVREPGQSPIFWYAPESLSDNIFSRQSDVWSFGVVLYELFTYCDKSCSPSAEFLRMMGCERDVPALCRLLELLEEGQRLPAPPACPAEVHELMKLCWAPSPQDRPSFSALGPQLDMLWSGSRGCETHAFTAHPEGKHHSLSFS

[2] = molecular target: Tyrosine-protein kinase JAK1 (Homo sapiens, UniProt P23458); assay: Kinase Assay: The assay reactions were performed in U-bottom 384-well plates. The final assay volume was 30 ul prepared from 15 ul additions of enzyme and substrates (fluoresceinated peptide and ATP) and test compounds in assay buffer (20 mM HEPES pH 7.4, 10 mM MgCl2, 25 mM beta-glycerol phosphate, 0.015% Brij35 and 4 mM DTT). The reaction was initiated by the combination of GST-JAK1 enzyme with substrates and test compounds. The reactions were incubated at room temperature for 3 hours and terminated by adding 60 ul of 35 mM EDTA to each sample. Each reaction mixture was analyzed on the Caliper LabChip 3000 (Caliper, Hopkinton, MA) by electrophoretic separation of the fluorescent substrate and phosphorylated product. […] The final concentration of reagents in the assays was: ATP, 100 uM; fluoresceinated peptide.
Chain of Tyrosine-protein kinase JAK1 (P23458 whole entry): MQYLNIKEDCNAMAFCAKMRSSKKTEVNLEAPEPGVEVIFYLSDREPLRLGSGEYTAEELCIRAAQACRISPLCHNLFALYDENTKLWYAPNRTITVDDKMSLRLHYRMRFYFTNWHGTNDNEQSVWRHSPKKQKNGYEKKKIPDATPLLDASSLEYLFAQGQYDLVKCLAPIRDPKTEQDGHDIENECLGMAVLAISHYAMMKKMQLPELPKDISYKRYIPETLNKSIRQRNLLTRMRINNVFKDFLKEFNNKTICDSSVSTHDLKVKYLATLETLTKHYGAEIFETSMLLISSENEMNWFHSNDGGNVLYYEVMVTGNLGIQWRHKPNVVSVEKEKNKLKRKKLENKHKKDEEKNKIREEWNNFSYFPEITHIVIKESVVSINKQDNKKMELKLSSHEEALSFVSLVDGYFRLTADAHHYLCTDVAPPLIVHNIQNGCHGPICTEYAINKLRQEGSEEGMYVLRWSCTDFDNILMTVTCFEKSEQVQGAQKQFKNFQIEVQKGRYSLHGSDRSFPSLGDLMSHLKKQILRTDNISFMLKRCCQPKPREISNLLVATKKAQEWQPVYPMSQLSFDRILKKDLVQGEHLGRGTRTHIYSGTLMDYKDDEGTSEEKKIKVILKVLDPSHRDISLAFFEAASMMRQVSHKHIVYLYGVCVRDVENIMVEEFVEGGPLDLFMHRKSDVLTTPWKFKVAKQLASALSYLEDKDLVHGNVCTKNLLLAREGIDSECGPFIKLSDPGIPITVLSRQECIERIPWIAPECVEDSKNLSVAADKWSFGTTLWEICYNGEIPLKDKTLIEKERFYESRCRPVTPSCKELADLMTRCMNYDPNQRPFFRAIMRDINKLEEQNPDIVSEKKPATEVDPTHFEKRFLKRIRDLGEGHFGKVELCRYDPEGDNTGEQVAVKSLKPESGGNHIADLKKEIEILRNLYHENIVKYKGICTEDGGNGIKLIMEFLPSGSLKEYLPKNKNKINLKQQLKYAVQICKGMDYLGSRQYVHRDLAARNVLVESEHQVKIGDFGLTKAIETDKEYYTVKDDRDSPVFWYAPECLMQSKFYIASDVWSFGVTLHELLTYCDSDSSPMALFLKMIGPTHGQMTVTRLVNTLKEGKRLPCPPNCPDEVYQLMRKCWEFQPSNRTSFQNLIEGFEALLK

Which IC50 [1] does the source give for `CC1(C)[C@H](Nc2c(C(N)=O)cnn3cc(-c4ccc(C#N)nc4)cc23)CC[C@]1(C)C(N)=O` here?
Its IC50 is 1 nM.

What about the IC50 [2] of the same compound?
Its IC50 is 5.8 nM.
